Counter-ions that a name gives are not always drawn. Like-named read-outs stand apart in the source and are kept apart here. Some results are limits rather than exact numbers.

The IC50 is the midpoint of a concentration-inhibition curve.

Data set [1] has as its system chloroquine-resistant K1 strain of P. falciparum. Put plainly: In vitro antiplasmodial activity (SYBR I), K1 strain. In kind it is cell-based, Plasmodium falciparum. On the procedure:
(§1) Measuring In Vitro Antiplasmodial Activity
(§2) The test samples were tested in duplicate on two separate occasions against chloroquine sensitive NF54 (MRA-1000, MR4, ATCC, Manassas, Va.) and chloroquine-resistant K1 strains of P. falciparum. A modified method of Trager and Jensen was employed to maintain continuous in vitro cultures of asexual blood stages of P. falciparum (Trageret al., 1976, Science, 193, 673-675). Quantitative assessment of antiplasmodial activity in vitro was determined using the SYBR I method as described earlier (Johnson et al., 2007, Antimicrob. Agents Chemother., 51, 1926-1933).
(§3) The percent inhibition with respect to the drug-free control was plotted against the logarithm of drug concentration. The growth inhibition curves were fitted by nonlinear regression using the sigmoidal dose-response (variable slope) formula to yield the concentration-response curves. […] Chloroquine diphosphate (CQ) (Sigma), artesunate (Sigma), and pyrimethamine were used as reference drugs in all experiments.

Data set [2] deals with chloroquine sensitive NF54 strain of P. falciparum. Put plainly: In vitro antiplasmodial activity (SYBR I), NF54 strain. The class given is cell-based, Plasmodium falciparum. On the procedure: as §1, §2, §3
The test system of the next data set is P. vivax field isolates. Put plainly: Ex vivo drug susceptibility (schizont maturation) of P. vivax field isolates. The following applies: Plasmodium vivax, read-out: P. vivax IC50. The class given is cell-based. Here is the method: (§4) Further, compounds of the invention (Examples 2 and 13) were also tested against field isolates of falciparum and vivax malaria, along with three control antimalarials as described in the protocol below.
(§5) Ex Vivo Activity of Examples 2 and 13 Against Drug Resistant P. falciparum and P. Vivax Field Isolates
(§6) Standard antimalarial drugs chloroquine (CQ), amodiaquine (AQ), piperaquine (PIP), mefloquine (MFQ), and artesunate (AS) and compounds of the invention were prepared as 1 mg/mL stock solutions in H2O or dimethyl sulfoxide (DMSO) according to the manufacturers' instructions. Drug plates were pre-dosed by diluting the compounds in 50% Methanol followed by lyophilisation and stored at 4° C.
(§7) Plasmodium isolates were collected from patients attending malaria clinics in Timika (Papua, Indonesia), a region endemic for multi-drug-resistant strains of P. vivax and P. falciparum. Patients with symptomatic malaria presenting to an outpatient facility were recruited into the study if singly infected with P. falciparum or P. vivax, with a parasitaemia of between 2,000 μl-1 and 80,000 μl-1, and the majority (>80%) of parasites at ring stage of development. Venous blood (5 mL) was collected by venipuncture and after removal of host white blood cells by using cellulose (Sigma-Aldrich, Australia) filtration, packed infected red blood cells (iRBCs) were used for the ex vivo drug susceptibility assay.
(§8) Drug susceptibility of P. vivax and P. falciparum isolates was measured using a protocol modified from the WHO microtest as described previously (Marfurt et al., 2011, Antimicrob Agents Chemother., 55(9):4461). Two hundred μL of a 2% haematocrit Blood Media Mixture (BMM), consisting of RPMI 1640 medium plus 10% AB+ human serum (P. falciparum) or McCoy's 5 A medium plus 20% AB+ human serum (P. vivax), was added to each well of pre-dosed drug plates containing 11 serial concentrations (2-fold dilutions) of the antimalarials (maximum concentration shown in brackets) CQ (2,992 nM), AQ (158 nM), PIP (1,029 nM), MFQ (338 nM), AS (49 nM), and a compound of the invention (2,146 nM). A candle jar was used to mature the parasites at 37.0° C. for 35-56 hours.
(§9) Thick blood films made from each well were stained with 5% Giemsa solution for 30 minutes and examined microscopically. The number of schizonts per 200 asexual stage parasites was determined for each drug concentration and normalised to the control well. The dose-response data were analysed using nonlinear regression analysis (WinNonLn 4.1, Pharsight Corporation) and the IC50 value derived using an inhibitory sigmoid Emax model. […] Drug plate quality was assured by running schizont maturation assays (two independent experiments) with the chloroquine-resistant strain K1 and the chloroquine-sensitive strain FC27.
(§10) For microscopy slide reading QC, two randomly selected drugs per isolate were read by a second microscopist. […] If necessary, discrepant results were resolved by a third reading by an expert microscopist.

Data set [3] relates to P. falciparum field isolates. Put plainly: Ex vivo drug susceptibility (schizont maturation) of P. falciparum field isolates. In kind it is cell-based. The settings on record: Plasmodium falciparum, read-out: P. falciparum IC50. On the procedure:
as §4, §5, §6, §7, §8, §9, §10

Data set [4] is described as follows: Identification of metabolites of Example 13, rat liver microsomes or hepatocytes. In kind it is in vitro ADME. The settings on record: metabolite of Example 13. Here is the method:
(§11) Identification of In Vivo Metabolites
(§12) Metabolites of Example 13 were identified both in vitro and in vivo using the following models: • In vitro: The compound of Example 13 was incubated with human (HLM) or rat (RLM) liver microsomes (1 mg/ml protein concentration in 100 mM phosphate buffer, pH 7.4) at a final concentration of 10 μM in the presence of 2 mM NADPH. The reactive intermediates were trapped by including 2 mM glutathione (GSH) or N-acetyl cysteine (NAC) in the reaction mix. • In vivo in bile duct cannulated rats: Example 13 was administered intravenously (IV) as a bolus through the jugular vein at a dose of 2 mg/kg or 4 mg/kg of body weight for control (n=3) or BDC rats (n=2), respectively. Blood samples were collected at 0.083, 0.25, 0.5, 1, 2, 4, 6, 8 and 24 h through the carotid artery, bile samples were collected at 0-2 h, 2-4 h, 4-6 h, 6-8 h and 8-24 h intervals and urine samples were collected at 0-8 h and 8-24 h intervals. The bile and urine samples were analyzed for the presence of parent and metabolites and blood samples were analyzed for the presence of parent.
(In general: Microsomes from liver hold many membrane-bound enzymes, among them those of drug oxidation.)

The nature of data set [5]: Identification of metabolites of Example 13, human liver microsomes or hepatocytes. In kind it is in vitro ADME. The following applies: metabolite of Example 13. On the procedure: as §11, §12
Data set [6] can be described thus: Identification of metabolites of Example 13, mouse liver microsomes or hepatocytes. The class given is in vitro ADME. The settings on record: metabolite of Example 13. On the procedure:
as §11, §12

[7] abbreviates: Plasmodium falciparum, K1, read-out: Pf IC50—K1.
[8] abbreviates: Plasmodium falciparum, NF54, read-out: Pf IC50—NF54.
Setting [9] is: Plasmodium falciparum, K1 strain, chloroquine-resistant, read-out: Pf IC50—K1.
Setting [10] is: Plasmodium falciparum, NF54 strain, chloroquine sensitive, read-out: Pf IC50—NF54.

As for `CCc1cc(Nc2ncc(N3CCNC(C)C3)c(Nc3cc(C)n(C)n3)n2)nc(C)c1F` (stereo in doubt) [Example 8, (R)—N4-(1,5-dimethyl-1H-pyrazol-3-yl)-N2-(4-ethyl-5-fluoro-6-methylpyridin-2-yl)-5-(3-methylpiperazin-1-yl)pyrimidine-2,4-diamine dihydrochloride], the half-maximal inhibitory concentration (IC50) turned out to be 44 nM in data set [1] (setting [7]) and 35 nM in data set [2] (setting [8]).
Regarding `C[C@H]1[C@H](OC(=O)CCC(=O)O)O[C@@H]2O[C@@]3(C)CC[C@H]4[C@H](C)CC[C@@H]1[C@@]24OO3` [Artesunate, artesunate], the IC50 in the data set with P. vivax field isolates is 4.79 nM; in data set [3], 15.1 nM.
Turning to `CCN(CC)CCCC(C)Nc1ccnc2cc(Cl)ccc12` (stereo not drawn) [Chloroquine, chloroquine, reference compound], the concentration for half-maximal inhibition (IC50) with P. vivax field isolates was 40.2 nM; in data set [3], 60.8 nM; in data set [1] (setting [7]), over 150 nM; in data set [2] (setting [8]), 11 nM.
Take `Cc1nc(Nc2ncc(N3CCN(C)CC3)c(Nc3cn(C)nn3)n2)cc(C2CC2)c1F` [Example 1, N2-(4-cyclopropyl-5-fluoro-6-methylpyridin-2-yl)-N4-(1-methyl-1H-1,2,3-triazol-4-yl)-5-(4-methylpiperazin-1-yl)pyrimidine-2,4-diamine]: the values for the IC50 in data set [1] (setting [9]) and in data set [2] (setting [10]) were 24 nM and 15 nM, respectively.
In the case of `Cc1nc(Nc2ncc(N3CCN[C@H](C)C3)c(Nc3cc(C)n(C)n3)n2)cc(C2CC2)c1F` [Example 2, (R)—N2-(4-cyclopropyl-5-fluoro-6-methylpyridin-2-yl)-N4-(1,5-dimethyl-1H-pyrazol-3-yl)-5-(3-methylpiperazin-1-yl)pyrimidine-2,4-diamine dihydrochloride], the “Presence of proposed metabolite (N-demethylation) in liver microsomes or hepatocytes” value in data set [4], in data set [5] and in data set [6] was “✓” each time. For the same molecule, the half-inhibitory concentration (IC50) amounted to 81 nM in the data set with P. vivax field isolates, 63.6 nM in data set [3], 19 nM in data set [1] (setting [7]) and 14 nM in data set [2] (setting [8]).
Turning to `CCn1nc(Nc2nc(Nc3cc(C4CC4)c(F)c(C)n3)ncc2N2CCN[C@H](C)C2)cc1C` [Example 3, (R)—N2-(4-cyclopropyl-5-fluoro-6-methylpyridin-2-yl)-N4-(1-ethyl-5-methyl-1H-pyrazol-3-yl)-5-(3-methylpiperazin-1-yl)pyrimidine-2,4-diamine dihydrochloride], the IC50 in data set [1] (setting [7]) was found to be 14 nM; in data set [2] (setting [8]), 17 nM.
The like results for `Cc1nc(Nc2ncc(N3CCN[C@H](C)C3)c(Nc3cn(C)nn3)n2)cc(C2CC2)c1F` [Example 4, (R)—N2-(4-cyclopropyl-5-fluoro-6-methylpyridin-2-yl)-N4-(1-methyl-1H-1,2,3-triazol-4-yl)-5-(3-methylpiperazin-1-yl)pyrimidine-2,4-diamine dihydrochloride] were, in that order, 51 nM and 33 nM.
The like results for `Cc1nc(Nc2ncc(N3CCN[C@H](C)C3)c(Nc3cc(C)n(C)n3)n2)cc(C2CC2)c1Cl` [Example 5, (R)—N2-(5-chloro-4-cyclopropyl-6-methylpyridin-2-yl)-N4-(1,5-dimethyl-1H-pyrazol-3-yl)-5-(3-methylpiperazin-1-yl)pyrimidine-2,4-diamine dihydrochloride] were, in that order, 48 nM and 23 nM.
For the molecule `Cc1nc(Nc2ncc(N3CCN[C@H](C)C3)c(Nc3cc(C)n(C)n3)n2)cc(C2CC2)c1C#N` [Example 6, (R)-4-cyclopropyl-6-((4-((1,5-dimethyl-1H-pyrazol-3-yl)amino)-5-(3-methylpiperazin-1-yl)pyrimidin-2-yl)amino)-2-methylnicotinonitrile dihydrochloride], the results for the concentration for half-maximal inhibition (IC50) in data set [1] (setting [7]) and in data set [2] (setting [8]) were 45 nM and 31 nM, respectively.
The like results for `Cc1nc(Nc2ncc(N3CCN[C@H](C)C3)c(Nc3cc(C)n(C)n3)n2)cc(C2CCC2)c1F` [Example 9, (R)—N2-(4-cyclobutyl-5-fluoro-6-methylpyridin-2-yl)-N4-(1,5-dimethyl-1H-pyrazol-3-yl)-5-(3-methylpiperazin-1-yl)pyrimidine-2,4-diamine dihydrochloride] were, in that order, 48 nM and 25 nM.
For `Cc1nc(Nc2ncc(N3CCN[C@H](C)C3)c(Nc3cn(C)nn3)n2)cc(C2CC2)c1Cl` [Example 11, (R)—N2-(5-chloro-4-cyclopropyl-6-methylpyridin-2-yl)-N4-(1-methyl-1H-1,2,3-triazol-4-yl)-5-(3-methylpiperazin-1-yl)pyrimidine-2,4-diamine dihydrochloride], the results for the half-inhibitory concentration (IC50) in data set [1] (setting [7]) and in data set [2] (setting [8]) were 50 nM and 30 nM, respectively.
As for `Cc1nc(Nc2ncc(N3CCN(C)[C@H](C)C3)c(Nc3cn(C)nn3)n2)cc(C2CC2)c1F` [Example 14, (R)—N2-(4-cyclopropyl-5-fluoro-6-methylpyridin-2-yl)-5-(3,4-dimethylpiperazin-1-yl)-N4-(1-methyl-1H-1,2,3-triazol-4-yl)pyrimidine-2,4-diamine], the values for the concentration for half-maximal inhibition (IC50) in data set [1] (setting [9]) and in data set [2] (setting [10]) were 69 nM and 33 nM, respectively.
The corresponding values for `Cc1nc(Nc2ncc(N3CCN(C)[C@H](C)C3)c(Nc3cnn(C)n3)n2)cc(C2CC2)c1F` [Example 15, (R)—N2-(4-cyclopropyl-5-fluoro-6-methylpyridin-2-yl)-5-(3,4-dimethylpiperazin-1-yl)-N4-(2-methyl-2H-1,2,3-triazol-4-yl)pyrimidine-2,4-diamine] are 37 nM and 17 nM.
In the case of `Clc1ccc2c(N3CCN(CCCN4CCN(c5ccnc6cc(Cl)ccc56)CC4)CC3)ccnc2c1` [Piperaquine, piperaquine], the IC50 in the data set on P. vivax field isolates stood at 5.9 nM; in data set [3] it was 16.9 nM.
Consider `CCc1nc(N)nc(N)c1-c1ccc(Cl)cc1` [Pyrimethamine, pyrimethamine, reference compound], for which the 50% inhibitory concentration (IC50) amounted to 7900 nM in data set [1] (setting [9]) and 64 nM in data set [2] (setting [10]).
Turning to “(R)—N2-(5-Fluoro-4-cyclopropyl-6-methylpyridin-2-yl)-N4-(2-methyl-2H-1,2,3-triazol-4-yl)-5-(3-methylpiperazin-1-yl)pyrimidine-2,4-diamine dihydochloride [Example 12]”, the half-inhibitory concentration (IC50) turned out to be 82 nM in data set [1] (K1 strain, chloroquine-resistant, read-out: Pf IC50—K1) and 39 nM in data set [2] (NF54 strain, chloroquine sensitive, read-out: Pf IC50—NF54).

The values are drawn from US9957253B2, “Triaminopyrimidine compounds useful for preventing or treating malaria” (MMV MEDICINES FOR MALARIA VENTURE, priority 2014, dated 2018).
